In brackets after ≈: the same amount, converted by molar mass. Numbered stars: 1 amine (or outer) side, 2 acyl side, 3 side chain; on linkers, the order of the positions; unused ones are H or OH. Bridge positions count the residues as written; N and C are the ends. Square brackets hold non-standard residues; d marks the D form. Peptide text beside a SMILES is read from it. * marks the point of attachment. Octanoyl(6-Me) = CCC(C)CCCCC(=O)*; NH(2-ClPh) = Clc1ccccc1N*; Dab = NCC[CH](N)C(=O)O; CO = O=C([*:1])[*:2]
How the values were obtained:
[1] = tested on: 5 different Gram negative pathogens; assay: Efficacy in 8 animal models with 5 Gram negative pathogens; format: in vivo; details: 8 models, mouse and rat
Experimental: Compound 5 was tested for efficacy in 8 models (both mouse models and rat models) with 5 different Gram negative pathogens. […]

[2] = tested on: Rat kidney proximal tubule cells; assay: Cell culture cytotoxicity assay (ATP bioluminescence, LLC-PK1); format: cell-based; details: LLC-PK1, 24 hours, ATP readout
Experimental: (§1) Day 1: 1×10^5 to 2×10^5 cellswere inoculated (Cell line: LLC-PK1) per flask, containing 4 mL/T25 flask of medium DMEM-F12 (50/50) media supplemented with 10% FBS (Fetal Bovine Serum). The cells were then incubated at 37° C., 5% CO2, 80% RH.
(§2) Day 4: The cell cultures were examined to determine 80% confluency. To trypsinize of the 80% confluent flasks, 4 mL of DMEM-F12-10% FBS media was prepared per flask. The media was aspirated from the flask and 5 mL of Versene was added to rinse the flask. The Versene was aspirated and 2 mL of triple Express solution (trypsin solution) was added. The cells were incubated for 5 min at room temperature and examined via microscopy for the rounding of the cells and their detachment. To speed up the reaction, the flask can be incubated at 37° C. for 3 minutes. 4 mL of media (DMEM-F12-10%FBS) was added to stop the reaction. Using a 5 mL pipette, the completed reaction was pipetted up and down to ensure that the cells were properly detached from the flask and from each others. The cell number was counted using a hemocytometer slide. 100 μL of cell suspension was transferred to a tube and 100 μL of Trypan Blue was added. Inoculum for 96 well is 10,000 cells per well. For one 96 well plate, 26.3 μL×110 well=2893 μL total. 2.9 mL of cell suspension was mixed with 8.1 mL of media DMEM-F12-10% FBS and 100 μL was distributed to each well using a multichannel pipetter. The plate was then Incubated for 24 h at 37° C.
(§3) Day 5: DMEM-F12 (no FBS) medium was dispensed into tubes with the test article to achieve final concentrations of […]. The 96 well plate was taken off the incubator and media was removed from each well using multichannel pipetter. 80 μL of serially diluted compounds of Formula (I) was added to each well. Every set of concentration was done in triplicate. Media and positive controls were added to each plate and the plates were incubated for 24 hours at 37° C.
(§4) Day 6: The plates were taken from the incubator, the media was removed from each well, and 100 μL of fresh media DMEM-F12 (this is equivalent to a rinse and the media can be replaced with PBS) was added. The media is then removed and 80 μL of cell lysis solution is added. After 5 minutes, 80 μL of sterile filtered high quality water was added to each well. Using a white or black 96 well reaction plate, 80 μL of 25× diluted ATP mix reagent (Sigma Bioluminescent Somatic Cell Assay Kit [cat #FL-ASC]) was added into one column. 80 μL of diluted ATP standards (dilutions used: 250, 500, 1000, 2000 and 4000) was added and the plate was read immediately in the topcount with a 2 second read time. In another white or black 96 well reaction plate, 80 μL of 25× diluted ATP mix reagent (plate A) was added and 80 μL of lysis-water solution was transferred to each column of plate A. The plate was then read immediately in the topcount with a 2 second read time. This process was repeated for next consecutive plate and the EC50 for certain compounds of Formula I were calculated and provided in Table 4.

[3] = as above; format: cell-based, rat; details: rat; read-out: EC50, rat kidney proximal tubule cell culture cytotoxicity assay
Experimental: as §1, §2, §3, §4

E. coli 1699 = assay: MIC, broth microdilution; format: cell-based, Escherichia coli; details: Table 3B
Experimental: (§5) MIC testing was performed according to Clinical and Laboratory Standards Institute (CLSI) M7-A7 (2006) broth microdilution methods. Unless otherwise indicated, MIC values are provided in units of micrograms per milliliter.
(§6) One day prior to testing, individual colonies were isolated by streaking onto rich, non-selective Tryptic Soy agar with 5% lysed sheeps blood (TSAB) with incubation at 35-37° C. for 18-24 hours.
(§7) Cultures were prepared by touching 3-5 colonies into 3 mL of Cation adjusted Mueller Hinton Broth (caMHB) in a 14 mL tube (CaMHB was prepared and sterilized according to manufacturer's specifications). Cultures were grown at 37° C. 200 rpm for approximately four hours prior to density adjustment for addition to the MIC assay.
(§8) OD600 of growing cultures was measured and adjusted to approximately 10^5 colony forming units per mL (CFU/mL) in caMHB for MIC inoculation (approximately OD600 0.001).
(§9) Diluted cultures were used to inoculate 50 μL per well in broth microdilution assays (final volume 100 μl per well; compounds were prepared in two-fold dilutions).
(§10) Plates were incubated 16-20 hrs at 37° C., with shaking at 200 rpm.
(§11) OD600 was determined for all wells. Growth was defined as OD600>0.1. MICs were defined as the lowest concentration producing no visible turbidity (OD600<0.1).

K. pneumonia 21 = assay: MIC, broth microdilution; format: cell-based, Klebsiella pneumoniae; details: Table 3B
Experimental: as §5, §6, §7, §8, §9, §10, §11

[4] = Dissociation constant (pKa)
pH of aqueous solution = format: physicochemical; details: at 5 mg/mL in water
Hygroscopicity = format: physicochemical
[5] = tested on: female cynomolgus monkeys; assay: Seven days of repeated IV administration, kidney findings (QD/BID mg/kg doses); format: in vivo, cynomolgus monkey; details: 6 mg/kg BID
Experimental: The kidney findings in female cynomolgus monkeys following seven days of repeated IV administration of Compound 5 were evident at dose levels of 6 mg/kg BID, 6 mg/kg QD, and 9 mg/kg QD, and to a lesser degree of severity at 3 and 4.5 mg/kg BID.

[6] = tested on: indole-positive Proteae, P. mirabilis, and S. marcescans; assay: In vitro activity against organisms intrinsically resistant to colistin; format: cell-based
Experimental: To evaluate the potency and spectrum of compounds of Formula (I), (i.e., Compounds designated 5 and 6), a study was conducted that put together a panel of 455 Gram negative strains, which included multi-drug resistant clinical isolates selected from various surveillance programs. Table 3A lists the strains that were included in the study and the activity of Compound 5, Compound 6, and colistin (polymyxin E, abbreviated PME). Strains with acquired resistance to colistin and/or carbapenems and/or broad spectrum cephalosporins were pre-selected and included in all organism groups evaluated.
as §5

| Compound | models in which efficacy was demonstrated [1] | logP (Lipophilicity (Log P)) | EC50 Rat kidney proximal tubule cells [2] | EC50 at 24 h [3] | MIC E. coli 1699 (E. coli 1699) | MIC K. pneumonia 21 (K. pneumonia 21) | solubility (Solubility profile; ethanol) | solubility (Solubility profile; water) | pKa [4] | pH (pH of aqueous solution) | Hygroscopicity (Hygroscopicity) | blood urea nitrogen (BUN) and serum creatinine ([5]; 6 mg/kg QD, 9 mg/kg QD) | kidney histopathological changes ([5]; 6 and 9 mg/kg QD, lesser severity at 3 and 4.5 mg/kg BID, 7 days IV) | activity against organisms intrinsically resistant to colistin [6] |
| --- | --- | --- | --- | --- | --- | --- | --- | --- | --- | --- | --- | --- | --- | --- |
| CC(C)C[C@@H]1NC(=O)[C@@H](Cc2ccccc2)NC(=O)[C@H](CCN)NC(=O)[C@@H](NC(=O)[C@H](CCN)NC(=O)[C@@H](NC(=O)[C@H](CCN)NC(=O)Nc2ccccc2Cl)[C@@H](C)O)CCNC(=O)[C@H]([C@@H](C)O)NC(=O)[C@H](CCN)NC(=O)[C@H](CCN)NC1=O [Compound 5, (S)-4-amino-N-((2S,3R)-1-((S)-4-amino-1-oxo-1-((3S,6S,9S,12S,15R,18S,21S)-6,9,18-tris(2-aminoethyl)-15-benzyl-3-((R)-1-hydroxyethyl)-12-isobutyl-2,5,8,11,14,17,20-heptaoxo-1,4,7,10,13,16,19-heptaazacyclotricosan-21-ylamino)butan-2-ylamino)-3-hydroxy-1-oxobutan-2-yl)-2-(3-(2-chlorophenyl)ureido)butanamide] ({NH(2-ClPh)-CO}-[Dab]T[Dab][Dab][Dab][dF]L[Dab][Dab]T; lactam 4-C) | 7 out of 8 | < -1 | >1000 micrograms/ml | > 1000 µg/mL | 2 micrograms/mL | 2 micrograms/mL | 200 µg/mL (≈ 164 µM) | > 300000 µg/mL | 8.17 | 5.9, at 5 mg/mL in water | Very hygroscopic | increase | minimal to mild degeneration/necrosis and regeneration of tubular epithelium | limited activity |
| CCC(C)CCCCC(=O)NC(CCN)C(=O)NC(C(=O)NC(CCN)C(=O)NC1CCNC(=O)C(C(C)O)NC(=O)C(CCN)NC(=O)C(CCN)NC(=O)C(CC(C)C)NC(=O)C(Cc2ccccc2)NC(=O)C(CCN)NC1=O)C(C)O (stereo not drawn) [Polymyxin B, polymyxin B, reference compound] ({Octanoyl(6-Me)}-[Dab]T[Dab][Dab][Dab]FL[Dab][Dab]T; lactam 4-C; configuration not given here) |  |  |  | 318 µg/mL (≈ 264 µM) |  |  |  |  |  |  |  |  |  |  |

— US8343912B2, “Antibiotic compositions for the treatment of gram negative infections” (priority 2008, dated 2013)
